Laboratory results taken from ChEMBL document CHEMBL5137079, “Structure-Based Design of Xanthine-Benzimidazole Derivatives as Novel and Potent Tryptophan Hydroxylase Inhibitors” (J Med Chem, 2022).
Values after ≈ are worked out from the molar mass of the structure shown.

Columns and labels:
[1] = Solubility of the compound in simulated intestinal fluid at upto 200 uM by HPLC-UV analysis; assay type: physicochemical
[2] = Solubility of the compound in PBS at pH 7.4 at upto 200 uM by HPLC-UV analysis; assay type: physicochemical
[3] = Solubility of the compound in simulated gastric fluid at upto 200 uM by HPLC-UV analysis; assay type: physicochemical
[4] = Metabolic stability in rat hepatocytes assessed as half life; assay type: ADME, cell-based, Hepatocyte
[5] = Metabolic stability in human hepatocytes assessed as half life; assay type: ADME, cell-based, Hepatocyte
[6] = Metabolic stability in human hepatocytes assessed as intrinsic clearance; assay type: ADME, cell-based, Hepatocyte; conditions: read-out: CLH
[7] = Metabolic stability in rat hepatocytes assessed as intrinsic clearance; assay type: ADME, cell-based, Hepatocyte; conditions: read-out: CLH
[8] = AUCinfinity in ICR mouse brain at 50 mg/kg, po administered as single dose measured for 1440 mins by LC-MS/MS analysis; assay type: ADME, organism-based; set-up: time 1440 min, dose 50 mg/kg, route po
[9] = AUCinfinity in ICR mouse plasma at 50 mg/kg, po administered as single dose measured for 1440 mins by LC-MS/MS analysis; assay type: ADME, organism-based; set-up: time 1440 min, dose 50 mg/kg, route po

A solubility [1] of 158 µM (≈ 63.2 µg/mL), a solubility [2] of 181 µM (≈ 72.6 µg/mL) and a solubility [3] of 162 µM (≈ 64.8 µg/mL) were found for CCn1c(=O)[nH]c(=O)c2c1nc(Cc1nc3ccccc3[nH]1)n2Cc1ccccc1 in this work. The half-life [4] was 1 h and the half-life [5] was 0.2 h.

A solubility [1] of 168 µM (≈ 69.2 µg/mL), a solubility [2] of 167 µM (≈ 69 µg/mL) and a solubility [3] of 180 µM (≈ 74.1 µg/mL) were found for O=c1[nH]c(=O)n(C2CC2)c2nc(Cc3nc4ccccc4[nH]3)n(Cc3ccccc3)c12 in this work. For the same compound, the half-life [4] was 0.583 h and the half-life [5] was 0.1 h.

A solubility [1] of 185 µM (≈ 79.1 µg/mL), a solubility [2] of 171 µM (≈ 73.4 µg/mL) and a solubility [3] of 165 µM (≈ 70.6 µg/mL) were found for O=c1[nH]c(=O)n(C2CC2)c2nc(Cc3nc4ccc(O)cc4[nH]3)n(Cc3ccccc3)c12 in this work. The half-life [4] was over 1 h, the CLint scaled [6] was under 115 mL/min/kg and the half-life [5] was over 1 h. The CLint scaled [7] was under 115 mL/min/kg.

A solubility [1] of 150 µM (≈ 65 µg/mL), a solubility [2] of 11.8 µM (≈ 5.1 µg/mL) and a solubility [3] of 173 µM (≈ 74.8 µg/mL) were found for CCCn1c(=O)[nH]c(=O)c2c1nc(Sc1nc3ccccc3[nH]1)n2Cc1ccccc1 in this work. For the same compound, the half-life [4] was 0.0833 h and the half-life [5] was 0.0667 h.

A solubility [1] of 154 µM (≈ 66.4 µg/mL), a solubility [2] of over 200 µM and a solubility [3] of 198 µM (≈ 85.4 µg/mL) were found for O=c1[nH]c(=O)n(C2CC2)c2nc(Cc3nc4ccc(F)cc4[nH]3)n(Cc3ccccc3)c12 in this work. The half-life [4] was over 1 h, the half-life [5] was 0.533 h and the CLint scaled [7] was under 115 mL/min/kg.

A solubility [1] of 195 µM (≈ 91.8 µg/mL), a solubility [2] of 197 µM (≈ 92.8 µg/mL) and a solubility [3] of 198 µM (≈ 93.2 µg/mL) were found for COC(=O)c1ccc2nc(Cc3nc4c(c(=O)[nH]c(=O)n4C4CC4)n3Cc3ccccc3)[nH]c2c1 in this work. It also gave a half-life [4] of over 1 h, a CLint scaled [6] of under 115 mL/min/kg and a half-life [5] of over 1 h. It also gave a CLint scaled [7] of under 115 mL/min/kg.

A solubility [1] of 196 µM (≈ 85.6 µg/mL), a solubility [2] of 154 µM (≈ 67.2 µg/mL) and a solubility [3] of 196 µM (≈ 85.8 µg/mL) were found for N#Cc1ccc2nc(Cc3nc4c(c(=O)[nH]c(=O)n4C4CC4)n3Cc3ccccc3)[nH]c2c1 in this work. It also gave a half-life [4] of over 1 h, a CLint scaled [6] of under 115 mL/min/kg and a half-life [5] of over 1 h. It also gave a CLint scaled [7] of under 115 mL/min/kg.

A solubility [1] of 166 µM (≈ 73.8 µg/mL), a solubility [2] of 186 µM (≈ 82.8 µg/mL) and a solubility [3] of 191 µM (≈ 84.8 µg/mL) were found for CCn1c(=O)[nH]c(=O)c2c1nc(Cc1nc3cc4c(cc3[nH]1)OCO4)n2Cc1ccccc1 in this work. The half-life [4] was 1 h, the CLint scaled [6] was under 115 mL/min/kg and the AUC(0-inf) [8] was 195 ng·h/mL. For the same compound, the AUC(0-inf) [9] was 7450 ng·h/mL and the half-life [5] was over 1 h.

A solubility [1] of 176 µM (≈ 73.5 µg/mL), a solubility [2] of 5.3 µM (≈ 2.22 µg/mL) and a solubility [3] of 195 µM (≈ 81.5 µg/mL) were found for CCn1c(=O)[nH]c(=O)c2c1nc(Sc1nc3ccccc3[nH]1)n2Cc1ccccc1 in this work. It also gave a half-life [4] of 0.167 h and a half-life [5] of 0.0833 h.

A solubility [1] of 116 µM (≈ 63.4 µg/mL), a solubility [2] of 172 µM (≈ 94.2 µg/mL) and a solubility [3] of over 200 µM were found for Cn1c(=O)[nH]c(=O)c2c1nc(Sc1nc3cc(NC(=O)CC[C@H](N)C(=O)O)ccc3[nH]1)n2Cc1ccccc1 in this work. It also gave a half-life [4] of over 1 h, a CLint scaled [6] of under 115 mL/min/kg and a half-life [5] of over 1 h. The CLint scaled [7] was under 115 mL/min/kg.

A solubility [1] of 159 µM (≈ 68.5 µg/mL), a solubility [2] of over 200 µM and a solubility [3] of 189 µM (≈ 81.3 µg/mL) were found for CCCn1c(=O)[nH]c(=O)c2c1nc(Cc1nc3cc(O)ccc3[nH]1)n2Cc1ccccc1 in this work. The half-life [4] was over 1 h, the CLint scaled [6] was under 115 mL/min/kg and the half-life [5] was over 1 h. It also gave a CLint scaled [7] of under 115 mL/min/kg.

A solubility [1] of 189 µM (≈ 89.2 µg/mL), a solubility [2] of 186 µM (≈ 87.7 µg/mL) and a solubility [3] of 186 µM (≈ 87.9 µg/mL) were found for O=c1[nH]c(=O)n(C2CC2)c2nc(Cc3nc4ccc(OCCO)cc4[nH]3)n(Cc3ccccc3)c12 in this work. For the same compound, the half-life [4] was over 1 h, the CLint scaled [6] was under 115 mL/min/kg and the half-life [5] was over 1 h. It also gave a CLint scaled [7] of under 115 mL/min/kg.

A solubility [1] of 191 µM (≈ 87.3 µg/mL), a solubility [2] of 22.9 µM (≈ 10.5 µg/mL) and a solubility [3] of 193 µM (≈ 87.9 µg/mL) were found for O=c1[nH]c(=O)n(C2CC2)c2nc(Cc3nc4cc5c(cc4[nH]3)OCO5)n(Cc3ccccc3)c12 in this work. It also gave a half-life [4] of over 1 h, a CLint scaled [6] of under 115 mL/min/kg and a half-life [5] of over 1 h. It also gave a CLint scaled [7] of under 115 mL/min/kg.

A solubility [1] of 195 µM (≈ 86.3 µg/mL), a solubility [2] of 197 µM (≈ 87.1 µg/mL) and a solubility [3] of 162 µM (≈ 71.6 µg/mL) were found for COc1ccc2nc(Cc3nc4c(c(=O)[nH]c(=O)n4C4CC4)n3Cc3ccccc3)[nH]c2c1 in this work. The half-life [4] was over 1 h, the half-life [5] was 0.1 h and the CLint scaled [7] was under 115 mL/min/kg.
